Assay results: article PMC12064818, “A general assay platform to study protein pharmacology using ligand-dependent structural dynamics” (Nature Communications, 2025)
Several values for one entry are separate records, joined by “and”; a condition that tells them apart may be missing. Equal values may be shown once. Where a name gives a salt, the structure may show the parent alone. Read-outs that look alike come from different tables or passages of the source.

Columns and labels:
PKA-N-HiBiT [1] = molecular target: T1, PKA-N-HiBiT (Homo sapiens, UniProt P17612); test: PKA peptide phosphorylation, Kinase-Glo Plus (KGP) assay, PKA-N-HiBiT; format: biochemical; design: containing amino acids Gly2-Phe351; His10 (N); made in house; host or cells: E. coli BL21(DE3); conditions: for Efficacy / Hill Coef / Max Resp / CC-v2: KGP Rep 1; for CC-v2: curve class
Procedure: (§1) Kinase activity was measured by ATP depletion using the Kinase-Glo Plus (KGP) assay kit (Promega) in 1536-well plate format. […] Controls were added with a Mosquito dispenser (STP LabTech) while compounds were transferred with a pintool to each plate as described in Supplementary Data 8 and incubated for 30 min at ambient temperature. […] Following a 10 min incubation, KGP luminescence was measured with a ViewLux plate reader with 1 sec exposure, with medium to high gain setting, slow speed and 2x binning. Data were normalized to the average of no enzyme control column as 100% kinase inhibition and DMSO control column as 100% phosphorylation reaction progress. See Supplementary Table 5 for additional details.
(§2) Protocol for Abelson kinase (ABL1) and protein kinase A (PKA) peptide phosphorylation assays
(§3) Supplementary Table 5: Protocol for Abelson kinase (ABL1) and protein kinase A (PKA) peptide phosphorylation assays Sequence Param eter Value Description
(§4) 3 Incubation 30 m in Incubate enzym e + com pounds at am bient tem p for 30 m in, protected from light […]
(§5) protocol; dispensed with BioRaptr 2

PKA-N-HiBiT [2] = molecular target: T1, PKA-N-HiBiT; test: SDR assay, PKA-N-HiBiT; conditions: for SDR Ave Max Response: average maximal response; for PKA SDR: Log [H-89]
PKA = conditions: annotation yes/no for kinase library compound; source not given; cited from earlier work
ABL1 = conditions: cited from earlier work
[3] = molecular target: T2, ABL1-N-HiBiT kinase domain (Homo sapiens, UniProt P00519); test: SDR assay, ABL1-N-HiBiT; conditions: for ABL1 SDR pSDR50: heatmap data, 128 kinase inhibitors; for EC50: read-out: SDR Ave SDR50, average, unit inferred
T2 sequence (P00519 233-500): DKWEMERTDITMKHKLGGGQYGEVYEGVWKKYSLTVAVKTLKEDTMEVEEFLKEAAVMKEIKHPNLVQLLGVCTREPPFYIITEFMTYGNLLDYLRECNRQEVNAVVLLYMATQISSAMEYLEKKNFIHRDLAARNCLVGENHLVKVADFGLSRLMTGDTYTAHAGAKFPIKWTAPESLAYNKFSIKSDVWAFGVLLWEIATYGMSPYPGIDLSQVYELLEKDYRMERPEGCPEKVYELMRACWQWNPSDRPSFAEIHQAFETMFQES

[4] = molecular target: T2, ABL1-N-HiBiT kinase domain; test: ABL1 peptide phosphorylation, Kinase-Glo Plus (KGP) assay, ABL1-N-HiBiT; format: biochemical; design: containing amino acid residues Asp233-Ser500; His10 (N); made in house; host or cells: E. coli BL21(DE3); conditions: for ABL1 KGP pIC50: ABL1, Kinase-Glo Plus (KGP), heatmap data, 128 kinase inhibitors; for IC50: ABL1-N-HiBiT qHTS, average, unit inferred, read-out: ABL1 KGP Ave IC50; for Efficacy / Hill Coef / Max Resp / CC-v2: KGP Rep 1; for CC-v2: curve class
Procedure: as §1, §2, §3, §4, §5

[5] = Figure 2i correlation plot data, read-out: ABL1 Enz Assay Mean (PKA KGP assay pIC50) (converted)
[6] = ABL1-N-HiBiT qHTS, average maximal SDR response
[7] = PKA-N-HiBiT qHTS, Kinase-Glo Plus, average, read-out: PKA KGP Ave IC50
[8] = read-out: PKA SDR Ave SDR50, PKA-N-HiBiT qHTS, SDR assay, average
[9] = PKA-N-HiBiT […] Std, ligand 62.5 µM Std
[10] = PKA-N-HiBiT 10 nM SDR, ligand 35.7 µM SDR

Row | Compound | ABL1 SDR pSDR50 [3] | IC50 (PKA-N-HiBiT [1]; [7]) | IC50 [4] | EC50 (PKA-N-HiBiT [2]) | SDR Ave Max Response (PKA-N-HiBiT [2]; PKA-N-HiBiT qHTS, SDR assay) | Annotated PKA activity (PKA) | SDR Ave Max Response [3, 6] | EC50 ([3]; ABL1-N-HiBiT qHTS) | EC50 (PKA-N-HiBiT [2]; [8]) | further results
1 | CN(c1ncccc1CNc1nc(Nc2ccc3c(c2)CC(=O)N3)ncc1C(F)(F)F)[S+](C)(=O)[O-] [PF-562271 HCl] | – | – | – | 3.98 µM | – | – | – | – | – | IC50 (PKA-N-HiBiT [1]; [5]): 44.7 µM
2 | Nc1ncnc2c1c(-c1cnc3[nH]ccc3c1)nn2C1CCCC1 [PP-121] | – | – | – | – | 6.39 | yes | – | – | – | Annotated ABL1 activity (ABL1): yes
3 | COc1cc2c(N3CCN(C(=O)Nc4ccc(OC(C)C)cc4)CC3)ncnc2cc1OCCCN1CCCCC1 [Tandutinib] | – | – | – | – | 7.68 | no | – | – | – | SDR Ave Max Response [3]: 63.54; Annotated ABL1 activity (ABL1): no
4 | I-BET762 | – | – | – | – | – | – | 6.74 | – | – | Annotated ABL1 activity (ABL1): no
5 | Cn1cc(-c2[nH]c3cc(NC(=O)[C@H](N)C4CCCCC4)cc4c3c2C=NNC4=O)cn1 [PF-477736] | – | – | – | 1.26 µM | – | – | – | – | – | IC50 (PKA-N-HiBiT [1]; [5]): 4.47 µM
6 | Cc1n[nH]c2ccc(-c3cncc(OC[C@@H](N)Cc4c[nH]c5ccccc45)c3)cc12 [A-443654] | 5.32 | 2.06 µM | – | – | 40.10 | yes | -27.36 | 5.63 µM | 0.188 µM | –
7 | O=S(=O)(NCCNC/C=C/c1ccc(Br)cc1)c1cccc2cnccc12 [H-89, reference compound] | – | – | – | – | – | – | – | – | – | Standard assay statistics Ave RLU (PKA-N-HiBiT [1]; [9]): 21788.2 RLU; Standard assay statistics S:B (PKA-N-HiBiT [1]; [9]): 6.8; Standard assay statistics S:N (PKA-N-HiBiT [1]; [9]): 6.3; Standard assay statistics Z’ (PKA-N-HiBiT [1]; [9]): 0.328; PKA SDR (PKA-N-HiBiT [2]; M -4.45): 61.3 and 59.1 and 49.2; PKA SDR (PKA-N-HiBiT [2]; M -4.75): 61.4 and 58.5 and 52.3; PKA SDR (PKA-N-HiBiT [2]; M -5.05): 60.9 and 55.5 and 49.6; PKA SDR (PKA-N-HiBiT [2]; M -5.35): 55.3 and 45.9 and 48.2; PKA SDR (PKA-N-HiBiT [2]; M -5.65): 48.5 and 39.4 and 60.1; PKA SDR (PKA-N-HiBiT [2]; M -5.95): 47.4 and 33.3 and 39.2; PKA SDR (PKA-N-HiBiT [2]; M -6.25): 38.3 and 24.0 and 33.5; PKA SDR (PKA-N-HiBiT [2]; M -6.55): 31.1 and 18.8 and 27.3; SDR assay statistics Ave RLU (PKA-N-HiBiT [2]; [10]): 31921.7 RLU; SDR assay statistics S:B (PKA-N-HiBiT [2]; [10]): 1.5; SDR assay statistics S:N (PKA-N-HiBiT [2]; [10]): 2.6; SDR assay statistics Z’ (PKA-N-HiBiT [2]; [10]): -0.628
8 | N[C@H]1CC[C@H](Nc2nc(Nc3ccc(C(=O)N4CCCCC4)cc3)c3ncn(-c4cccc(F)c4)c3n2)CC1 [Purfalcamine] | 6.61 | 30 µM | 3.88 µM | 117 µM | 23.75 | no | 91.87 | 0.248 µM | – | IC50 (PKA-N-HiBiT [1]; [5]): 22.9 µM; ABL1 KGP pIC50 [4]: 5.42
9 | COc1cc(N2CCOCC2)ccc1Nc1ncc(Cl)c(Nc2ccccc2NS(C)(=O)=O)n1 [CZC 54252 HCl] | 5.09 | 49.9 µM | 10.1 µM | 1.35 µM | 40.07 | no | 69.42 | 9.66 µM | 1.58 µM | IC50 (PKA-N-HiBiT [1]; [5]): 33.9 µM; ABL1 KGP pIC50 [4]: 5.38
10 | O=C(Nc1c[nH]nc1-c1nc2ccc(CN3CCOCC3)cc2[nH]1)NC1CC1 [AT9283] | – | 0.861 µM | – | 0.0437 µM | 67.79 | yes | – | – | 0.0453 µM | –
11 | Cc1cc(O)c2c(c1)C(=O)c1cc(O)cc(O)c1C2=O [Emodin] | – | – | – | 14.1 µM | -14.68 | no | -3.42 | – | 15.2 µM | Efficacy (PKA-N-HiBiT [1]): -14.49; Hill Coef (PKA-N-HiBiT [1]): 3.19; Max Resp (PKA-N-HiBiT [1]): 8.59; CC-v2 (PKA-N-HiBiT [1]): 4; Efficacy [4]: 23.75; Hill Coef [4]: 1.10; Max Resp [4]: 17.37; CC-v2 [4]: 4
12 | c1cc(-c2cc(C3CCNCC3)[nH]n2)ccn1 [ETP 45835 2HCl] | 5.02 | – | – | 8.32 µM | 25.66 | no | -32.09 | 9.57 µM | 19.7 µM | IC50 (PKA-N-HiBiT [1]; [5]): 83.2 µM
13 | PF-477736 | 6.38 | 5.32 µM | 1.04 µM | – | 33.34 | no | 81.41 | 0.432 µM | 1.29 µM | ABL1 KGP pIC50 [4]: 6.01
14 | CCN1/C(=C/C(C)=O)Sc2ccc(OC)cc21 [TG003] | – | – | – | – | 6.70 | no | 9.57 | – | – | Efficacy (PKA-N-HiBiT [1]): 0.00; Max Resp (PKA-N-HiBiT [1]): 8.95; CC-v2 (PKA-N-HiBiT [1]): 4; Efficacy [4]: 49.18; Hill Coef [4]: 4.96; Max Resp [4]: 37.84; CC-v2 [4]: 3
15 | PF-562271 HCl | 4.94 | 45.5 µM | 5.86 µM | – | 40.60 | no | 70.73 | 12 µM | 4.56 µM | –
16 | O=c1c(O)c(-c2ccc(O)c(O)c2)oc2cc(O)cc(O)c12 [Quercetin] | – | – | 5.88 µM | – | -5.00 | no | 48.80 | 9.18 µM | – | Efficacy (PKA-N-HiBiT [1]): -15.69; Hill Coef (PKA-N-HiBiT [1]): 1.22; Max Resp (PKA-N-HiBiT [1]): 9.03; CC-v2 (PKA-N-HiBiT [1]): 4
17 | CC[C@@](C)(Nc1ccnc(-c2c[nH]c3ncccc23)n1)C(=O)NCC(F)(F)F [Decernotinib] | 5.64 | – | 7.45 µM | 15.8 µM | 33.61 | no | 85.00 | 2.37 µM | 18.8 µM | ABL1 KGP pIC50 [4]: 5.13
